Structures are written as SMILES.

Assay in all cases: Isothermal titration calorimetry at 25 °C in 20 mM HEPES, pH 8.0, 2 mM CaCl2, 50 uM protein in the cell titrated with oligosaccharide, single-site non-linear regression.
Holding throughout (format): binding
Background: In ITC the heat of successive injections is recorded.

For test [1], the target named is T1, XG-34 (Rhodothermus marinus, UniProt Q7WTN6, E282H/E322D/F286L/F320H/Q321D/W279Y/Y359F).
T1 construct: CBM4-2 domain scaffold, hexahistidine tag (pET22b, E. coli BL21 (DE3))
The conditions noted are these: read-out: KA (10^3 M^-1). As for the experimental part: (§1) Isothermal titration calorimetry (ITC) measurements were performed at 25°C following standard procedures using a Microcal Omega titration calorimeter (Northampton, MA, USA). XXXG and XLLG (Figure 1) were prepared as previously described. Prior to analysis, the CBM were extensively dialyzed against 20 mM HEPES, pH 8.0 containing 2 mM CaCl2. The same buffer was used to dissolve tamarind seed xyloglucan, XXXG, XLLG and galactose to minimize heats of dilution. 50 μM protein samples were stirred at 300 rpm in a 1.4331 ml reaction cell. Ligands were injected as a single 1 μl aliquot followed by 27 successive 10 μl aliquots at 300 s intervals (2 mM, 7.5 mM or 10 mM XXXG; 1 mM or 5 mM XLLG; 2.5% or 5% w/v xyloglucan; 10 mM galactose). Integrated heat effects were analyzed by non-linear regression using a single-site binding model.

The test system of test [2] is T2, XG-34/2-VI.
T2 construct: CBM4-2 domain scaffold, hexahistidine tag (pET22b, E. coli BL21 (DE3))
As for the experimental part: as §1

In test [3] the test system is T3, XG-34/1-X.
T3 construct: CBM4-2 domain scaffold, hexahistidine tag (pET22b, E. coli BL21 (DE3))
The method, then: as §1

As for `OC[C@H]1O[C@@H](O[C@H]2[C@@H](OC[C@H]3O[C@@H](O[C@H]4[C@H](O)[C@@H](O)[C@H](O[C@H]5[C@H](O)[C@@H](O)C(O)O[C@@H]5CO)O[C@@H]4CO[C@H]4OC[C@@H](O)[C@H](O)[C@H]4O[C@@H]4O[C@H](CO)[C@H](O)[C@H](O)[C@H]4O)[C@H](O)[C@@H](O)[C@@H]3O[C@@H]3O[C@H](CO[C@H]4OC[C@@H](O)[C@H](O)[C@H]4O)[C@@H](O)[C@H](O)[C@H]3O)OC[C@@H](O)[C@@H]2O)[C@H](O)[C@@H](O)[C@H]1O` (stereo partly shown) [XLLG, xyloglucan oligosaccharide XLLG (galactose-containing nonasaccharide, Gal2Xyl3Glc4)], the Kd in test [1] is about 1000 µM.

`OC[C@H]1OC(O)[C@H](O)[C@@H](O)[C@@H]1O[C@@H]1O[C@H](CO[C@H]2OC[C@@H](O)[C@H](O)[C@H]2O)[C@@H](O[C@@H]2O[C@H](CO[C@H]3OC[C@@H](O)[C@H](O)[C@H]3O)[C@@H](O[C@@H]3O[C@H](CO[C@H]4OC[C@@H](O)[C@H](O)[C@H]4O)[C@@H](O)[C@H](O)[C@H]3O)[C@H](O)[C@H]2O)[C@H](O)[C@H]1O` (stereo partly shown) [XXXG, xyloglucan oligosaccharide XXXG (non-galactosylated heptasaccharide, Xyl3Glc4)]: the “KA (10^3 M^-1)” value in test [2] and in test [3] was “~ ≈ 1 M-1” in each case. Besides, the Kd in test [1] was about 1000 µM.

Source of the values: article PMC2783032, “Affinity maturation generates greatly improved xyloglucan-specific carbohydrate binding modules” (BMC Biotechnology, 2009).
